# Laboratory results published in US20180133327A1, “Cell Penetrating Peptides and Complexes Comprising the Same” (Amal Therapeutics SA, priority 2015, published 2018).
# Key:
# [1] = system: BMDC, mo-DCs, EL-4 or K562 cells; assay: In vitro transduction with fluorescein-conjugated ZEBRA CPP truncation constructs (FACS); assay type: cell-based, human and mouse; details: for kinetic of transduction (entry into cells): fluorescein-conjugated constructs (ZxxOVACD8FAM), 30 minutes, 2 h or 4 h, acidic wash, FACS
# Protocol: Transduction was assessed in cells with high phagocytosis capacity (dendritic cells of human and mice origin) and in cells with poor phagocytosis capacity (T cells from human, K562, or mouse, EL4, origin). Cells were incubated for 30 minutes, 2 h or 4 h with the fluorescein-conjugated constructs (Z13OVACD8FAM, Z14OVACD8FAM, Z15OVACD8FAM or Z18OVACD8FAM) then subjected to a 30s wash with an acidic buffer to remove membrane bound peptide before FACS analysis.
# In order to more directly assess the transduction capacities of the selected ZEBRA CPP truncations Z13, Z14, Z15 and Z18 fluorescein-conjugated constructs (Z13OVACD8FAM, Z14OVACD8FAM, Z15OVACD8FAM and Z18OVACD8FAM) were synthesized. To this end, 5-(and-6)-carboxyfluorescein (mixed isomers; e.g. ThermoFisher Scientific catalogue no. C194) was added to each of Z13OVACD8 (SEQ ID NO: 29), Z14OVACD8 (SEQ ID NO: 30), Z15OVACD8 (SEQ ID NO: 31) and Z18OVACD8 (SEQ ID NO: 34).
# These fluorescein-conjugated constructs (Z13OVACD8FAM, Z14OVACD8FAM, Z15OVACD8FAM and Z18OVACD8FAM) were tested for their ability to transduce different human and mouse cell types, in particular (i) cells with high phagocytosis capacity, namely dendritic cells (DCs) of human […], and (ii) cells with poor phagocytosis capacity, namely T cells from human, K562, or mouse, EL4, origin). The EL-4 thymoma cell line was maintained in complete RPMI 1640 medium. The K562 cell line was maintained in complete Iscove's modified Dulbecco's medium. BMDC, mo-DCs, EL-4 or K562 cells were incubated for 4 h at 37° C. with the fluorescein-conjugated constructs as described above (Z13OVACD8FAM, Z14OVACD8FAM, Z15OVACD8FAM or Z18OVACD8FAM). For removal of membrane bound peptide prior to cell transduction, a 30s wash with an acidic buffer (0.2 M Glycine, 0.15 M NaCl, pH 3) was performed. Cells were then analyzed by flow cytometry (FACS).
# [2] = system: CFSE-labeled naïve OVA257-264-specific CD8+ T cells from OT-1 TCR transgenic mice; assay: In vitro epitope presentation assay, MHC class I (BMDCs, proliferation of OT-1 T cells); assay type: cell-based, mouse; details: for in vitro proliferation of CD8 T cells (MHC class I presentation): BMDCs loaded 4 h with 300 nM ZxxOVACD8CD4, LPS o.n., 4 days
# Protocol: BMDCs were loaded 4 h with 300nM of the different Zebra CPP truncation conjugated to both ovalbumin CD8 and CD4 epitopes (Z13OVACD8CD4, Z15OVACD8CD4 and Z18OVACD8CD4), then washed and incubated o.n. with 100 ng/ml of LPS. Efficient MHC class I or class II-restricted presentation was monitored after 4 days with CFSE-labeled naïve OVA257-264-specific CD8^+T cells from OT-1 T cell receptor (TCR) transgenic mice OT1 cells (A) or CFSE-labeled naïve OVA323-339-specific CD^+T cells from OT-2 T cell TCR transgenic mice respectively. As positive control, BMDCs were pulsed for 1 h with 5 uM peptide. Data from one experiment representative of three independent experiments.
# BMDCs were loaded with 0.3 μM of each Zebra CPP truncation (Z13 to Z20) conjugated to OVACD8 epitope as described above for 4 hours at 37° C., washed 3 times, then matured overnight at 37° C. with 100 ng/ml LPS (from Salmonella abortus, equi S-form, Enzo Life Sciences). Antigen-loaded mature BMDC were then mixed at a ratio of 1:10 with OT-1 T cell receptor (TCR) transgenic mice splenocytes that had been stained with 10 μM 5-(and 6) Carboxyfluorescein diacetate succinimidyl ester (CFSE) (Life Technologies). After 4 days co-incubation of spleen cells and BMDCs, antigen-specific proliferation was assessed by flow cytometry, measuring CFSE dilution on CD8 T cells and live-gated cells. OT-1 mice express TCR specific for MHC class I restricted OVA257-264.
# In order to assess the capacity of the ZEBRA CPP truncations to stimulate an integrated immune response including CD4 T cells, antigenic cargoes were produced that included both CD8 and CD4 T cell epitopes from OVA, and conjugated to Z13, Z15 and Z18. Accordingly, the following constructs (Z13OVACD8CD4, Z15OVACD8CD4 and Z18OVACD8CD4) were synthesized:
# Processing and presentation of the CD8 and CD4 T cell epitopes were monitored, as described in Example 2 for CD8 T cell epitopes, by measuring the in vitro proliferation of naïve OT-1 T cells (CD8 T cell epitopes; FIG. 4A) and OVA323-339-specific CD4^+ T cells from OT-2 T cell TCR transgenic mice, respectively (FIG. 4B). Briefly, OT-2 T cell TCR transgenic mice express TCR specific for MHC class II restricted OVA323-339.
# [3] = system: EG7-OVA tumor cells; assay: Therapeutic effect of ZEBRA CPP truncation-based vaccines in the EG.7-OVA s.c. model; assay type: in vivo, C57BL/6 mice; details: 10 nmol ZxxOVACD8CD4 and 20 μg MPLA s.c. at d5, d13 and d21 after tumor implantation
# Protocol: C57BL/6 mice were implanted s.c. with 3×10^5 EG7-OVA tumor cells in the left flank and vaccinated three times (d5, d13 and d21) by s.c. injection of 10nmoles of Z-truncOVACD8CD4 peptides and 20 μg of MPLA in the right flank. Tumor size was measured with a caliper. […] B, D and F: survival curve of 7 mice per group. Median survival is indicated on the graph (m.s.). *, p<0.05; **, p<0.01; ***, p<0.001; ****, p<0.0001 (Log-Rang test).
# To investigate the effects of different ZEBRA CPP truncation-based vaccines on tumor growth and survival, the effects of the constructs Z13OVACD8CD4, Z14OVACD8CD4, Z15OVACD8CD4 and Z18OVACD8CD4 (as described in Examples 4 and 6) were investigated in the EG.7-OVA s.c. model. On d0, C57BL/6 mice were implanted s.c. with 3×10^5 EG7-OVA tumor cells in the left flank and assigned to five different groups (control, Z13OVACD8CD4, Z14OVACD8CD4, Z15OVACD8CD4 and Z18OVACD8CD4). Mice were vaccinated three times (namely, at d5, d13 and d21 after tumor implantation) by s.c. injection of either 10 nmol of Z13OVACD8CD4, Z14OVACD8CD4, Z15OVACD8CD4 or Z18OVACD8CD4 and 20μg of MPLA in the right flank. Tumor size was measured with a caliper.
Sequence,kinetic of transduction (entry into cells) [1],in vitro proliferation of CD8 T cells (MHC class I presentation) [2],survival time [3],tumor volume [3],"transduction efficacy, all cell types ([1]; fluorescein-conjugated constructs, compared to other ZEBRA CPP truncations)","efficiency of DC transduction and cargo delivery into the MHC class I antigen processing pathway ([2]; ZxxOVACD8CD4, 300 nM, compared with Z13 or Z15)"
KRYKNRVASRKSRAKFK (CPP Z15) [ZEBRA CPP truncation],slower,proliferation of both CD8 and CD4 T cells occurred,only slight,only slight,–,–
REVAAAKSSENDRLRLLLK [Z18],slower,proliferation of both CD8 and CD4 T cells occurred,only slight,only slight,lower transduction efficacy,less efficient
KRYKNRVASRKSRAKFKQLLQHYREVAAAK [Z14],rapidly entering in the majority of the cells,–,much more pronounced and highly significant,much more pronounced and highly significant,–,–
KRYKNRVASRKSRAKFKQLLQHYREVAAAKSSENDRLRLLLK [Z13],rapidly entering in the majority of the cells,proliferation of both CD8 and CD4 T cells occurred,much more pronounced and highly significant,much more pronounced and highly significant,–,–
